Source: PubChem BioAssay (NCI)
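Assay format: 96-well plates, 48-hour exposure. GI50: concentration for 50% inhibition of growth. TGI denotes the concentration required for complete inhibition of growth.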

Legend:
Assay in all cases: NCI tumour cell line growth inhibition, 48 h
HCC-2998 colon = tested on: HCC-2998 colon
DU-145 prostate = tested on: DU-145 prostate
HOP-62 NSCLC = tested on: HOP-62 NSCLC
SW-620 colon = tested on: SW-620 colon
NCI-H23 lung = tested on: NCI-H23 lung
MDA-MB-231 breast = tested on: MDA-MB-231 breast
NCI-H522 lung = tested on: NCI-H522 lung
HT29 colon = tested on: HT29 colon
CAKI-1 renal = tested on: CAKI-1 renal
SR leukemia = tested on: SR leukemia

## OC(COc1cccc2ccccc12)CN1CCN(c2ccccc2)CC1 (stereo not given)
HCC-2998 colon
  GI50: 16.5 µM
  TGI: 30.7 µM
DU-145 prostate
  GI50: 17.7 µM
  TGI: 31.9 µM
HOP-62 NSCLC
  GI50: 13.4 µM
  TGI: 26.8 µM
SW-620 colon
  GI50: 15.2 µM
  TGI: 30.1 µM
NCI-H23 lung
  GI50: 15.9 µM
  TGI: 31.9 µM
MDA-MB-231 breast
  GI50: 15.8 µM
  TGI: 31.8 µM
NCI-H522 lung
  GI50: 14.4 µM
  TGI: 29.2 µM
HT29 colon
  GI50: 15 µM
  TGI: 30 µM
CAKI-1 renal
  GI50: 12.6 µM
  TGI: 27.2 µM
SR leukemia
  GI50: 16.1 µM
  TGI: 41.3 µM

## O=C(c1cccs1)c1c(C(F)(F)F)n([O-])c2ccc(F)cc2[n+]1=O
HCC-2998 colon
  GI50: 0.8 µM
  TGI: 1.98 µM
DU-145 prostate
  GI50: 1.15 µM
  TGI: 3.12 µM
HOP-62 NSCLC
  GI50: 1.58 µM
  TGI: 3.13 µM
SW-620 colon
  GI50: 0.523 µM
  TGI: 2.32 µM
NCI-H23 lung
  GI50: 1.22 µM
  TGI: 2.6 µM
MDA-MB-231 breast
  GI50: 1.5 µM
  TGI: 3.1 µM
NCI-H522 lung
  GI50: 1.46 µM
  TGI: 2.88 µM
HT29 colon
  GI50: 0.868 µM
  TGI: 2.47 µM
CAKI-1 renal
  GI50: 1.62 µM
  TGI: 3.14 µM
SR leukemia
  GI50: 0.148 µM
  TGI: 0.558 µM

## CC(=O)OC[C@]12CC[C@@H]([C@@H](C)C(N)=O)[C@@H]1[C@H]1CC[C@@H]3[C@@]4(C)CC[C@H](OC(C)=O)C(C)(C)[C@@H]4CC[C@@]3(C)[C@]1(C)CC2
HCC-2998 colon
  GI50: 10.4 µM
  TGI: 26.1 µM
DU-145 prostate
  GI50: 9.94 µM
  TGI: 23.3 µM
HOP-62 NSCLC
  GI50: 11 µM
  TGI: 26.6 µM
SW-620 colon
  GI50: 7.69 µM
  TGI: 24.2 µM
NCI-H23 lung
  GI50: 9.42 µM
  TGI: 33.6 µM
MDA-MB-231 breast
  GI50: 11.8 µM
  TGI: 30.8 µM
NCI-H522 lung
  GI50: 4.94 µM
  TGI: 20.7 µM
HT29 colon
  GI50: 3.73 µM
  TGI: 15.4 µM
CAKI-1 renal
  GI50: 3.24 µM
  TGI: 15.4 µM
SR leukemia
  GI50: 3.32 µM
  TGI: 23.5 µM

## O=C1c2ccccc2-c2c1c1ccccc1c(=O)n2CCCN1CCN(CCCn2c3c(c4ccccc4c2=O)C(=O)c2ccccc2-3)CC1
HCC-2998 colon
  GI50: > 100 µM
  TGI: > 100 µM
DU-145 prostate
  GI50: 23.7 µM
  TGI: > 86.4 µM
HOP-62 NSCLC
  GI50: 6.41 µM
  TGI: 53.4 µM
SW-620 colon
  GI50: > 100 µM
  TGI: > 100 µM
NCI-H23 lung
  GI50: 34.5 µM
  TGI: > 83.8 µM
MDA-MB-231 breast
  GI50: 2.41 µM
  TGI: 27.4 µM
NCI-H522 lung
  GI50: > 100 µM
  TGI: > 100 µM
HT29 colon
  GI50: > 100 µM
  TGI: > 100 µM
CAKI-1 renal
  GI50: > 100 µM
  TGI: > 100 µM
SR leukemia
  GI50: 0.0809 µM
  TGI: 17.9 µM

## NC(=O)C(NC=O)c1ccccc1 (stereo not given)
HCC-2998 colon
  TGI: > 100 µM
DU-145 prostate
  TGI: > 100 µM
HOP-62 NSCLC
  TGI: > 100 µM
SW-620 colon
  TGI: > 100 µM
NCI-H23 lung
  TGI: > 100 µM
MDA-MB-231 breast
  TGI: > 100 µM
NCI-H522 lung
  TGI: > 100 µM
HT29 colon
  TGI: > 100 µM
CAKI-1 renal
  TGI: > 100 µM
SR leukemia
  TGI: > 100 µM

## COC(=O)c1ccc([N+](=O)[O-])c(O)c1
HCC-2998 colon
  TGI: > 100 µM
DU-145 prostate
  TGI: > 100 µM
HOP-62 NSCLC
  TGI: > 100 µM
SW-620 colon
  TGI: > 100 µM
NCI-H23 lung
  TGI: > 100 µM
MDA-MB-231 breast
  TGI: > 100 µM
NCI-H522 lung
  TGI: > 100 µM
HT29 colon
  TGI: > 100 µM
CAKI-1 renal
  TGI: > 100 µM
SR leukemia
  TGI: > 100 µM

## C=C1CCC2C3(C)COC(c4ccc(SC)cc4)OC3CCC2(C)C1C/C=C1/C(=O)OCC1O (stereo not given)
HCC-2998 colon
  GI50: 11.9 µM
  TGI: 24.9 µM
DU-145 prostate
  GI50: 11.5 µM
  TGI: 23.7 µM
HOP-62 NSCLC
  GI50: 17.3 µM
  TGI: 32.8 µM
SW-620 colon
  GI50: 1.93 µM
  TGI: 3.66 µM
NCI-H23 lung
  GI50: 4.48 µM
  TGI: 17.4 µM
MDA-MB-231 breast
  GI50: 5.52 µM
  TGI: 16.5 µM
NCI-H522 lung
  GI50: 1.92 µM
  TGI: 5.98 µM
HT29 colon
  GI50: 2.42 µM
  TGI: 7.02 µM
CAKI-1 renal
  GI50: 11.2 µM
  TGI: 28.2 µM
SR leukemia
  GI50: 2.53 µM
  TGI: 8.04 µM

## O=C(O)CCCCn1cnc2c(=S)nc[nH]c21
HCC-2998 colon
  TGI: > 100 µM
DU-145 prostate
  TGI: > 100 µM
HOP-62 NSCLC
  TGI: > 100 µM
SW-620 colon
  TGI: > 100 µM
NCI-H23 lung
  TGI: > 100 µM
MDA-MB-231 breast
  TGI: > 100 µM
NCI-H522 lung
  TGI: > 100 µM
HT29 colon
  TGI: > 100 µM
CAKI-1 renal
  TGI: > 100 µM
SR leukemia
  TGI: > 100 µM

## COc1ccc(C2=C(c3cc(OC)c(OC)c(OC)c3)C(=O)CC2)cc1
HCC-2998 colon
  GI50: 0.244 µM
  TGI: 18.2 µM
DU-145 prostate
  GI50: 0.294 µM
HOP-62 NSCLC
  GI50: 0.355 µM
  TGI: > 100 µM
SW-620 colon
  GI50: 0.082 µM
  TGI: > 100 µM
NCI-H23 lung
  GI50: 0.313 µM
  TGI: > 100 µM
MDA-MB-231 breast
  GI50: 0.62 µM
  TGI: > 100 µM
NCI-H522 lung
  GI50: 0.0671 µM
  TGI: 2.84 µM
HT29 colon
  GI50: 0.0845 µM
  TGI: 15.3 µM
CAKI-1 renal
  GI50: 0.76 µM
  TGI: > 100 µM
SR leukemia
  GI50: 0.0335 µM
  TGI: > 100 µM

## Cc1nc(/N=C(\N)NC(=O)Nc2ccccc2Cl)sc1C
HCC-2998 colon
  GI50: 1.25 µM
  TGI: > 100 µM
DU-145 prostate
  GI50: 0.621 µM
  TGI: 5.85 µM
HOP-62 NSCLC
  GI50: 0.505 µM
  TGI: 2.84 µM
SW-620 colon
  GI50: 0.329 µM
  TGI: > 100 µM
NCI-H23 lung
  GI50: 0.687 µM
  TGI: > 74.9 µM
MDA-MB-231 breast
  GI50: 1.06 µM
  TGI: 50.3 µM
NCI-H522 lung
  GI50: 0.189 µM
HT29 colon
  GI50: 0.333 µM
  TGI: 5.32 µM
CAKI-1 renal
  GI50: 0.435 µM
  TGI: 9.41 µM
SR leukemia
  GI50: 0.173 µM
  TGI: 35.5 µM

## CC1OC(OC2CC(O)C3(CO)C4C(O)CC5(C)C(C6=CC(=O)OC6)CCC5(O)C4CCC3(O)C2)C(O)C(O)C1O (stereo not given)
HCC-2998 colon
  GI50: 0.0606 µM
  TGI: 0.204 µM
DU-145 prostate
  GI50: < 0.012 µM
  TGI: < 0.0152 µM
HOP-62 NSCLC
  GI50: < 0.0112 µM
  TGI: < 0.0146 µM
SW-620 colon
  GI50: 0.02 µM
  TGI: 0.702 µM
NCI-H23 lung
  GI50: < 0.0108 µM
  TGI: < 0.0142 µM
MDA-MB-231 breast
  GI50: 0.129 µM
  TGI: 0.641 µM
NCI-H522 lung
  GI50: < 0.0147 µM
  TGI: < 0.0312 µM
HT29 colon
  GI50: < 0.0147 µM
  TGI: 0.102 µM
CAKI-1 renal
  GI50: < 0.0146 µM
  TGI: 0.024 µM
SR leukemia
  GI50: 0.0221 µM
  TGI: 0.0546 µM

## O=S1(=O)CS(=O)(=O)OCCCO1
HCC-2998 colon
  TGI: > 100 µM
DU-145 prostate
  TGI: > 100 µM
HOP-62 NSCLC
  TGI: > 100 µM
SW-620 colon
  TGI: > 100 µM
NCI-H23 lung
  TGI: > 100 µM
MDA-MB-231 breast
  TGI: > 100 µM
NCI-H522 lung
  TGI: > 100 µM
HT29 colon
  TGI: > 100 µM
CAKI-1 renal
  TGI: > 100 µM
SR leukemia
  TGI: > 100 µM

## COc1ccc(/C=C\c2cc(OC)c(OC)c(OC)c2)cc1OC(=O)c1cccc(Cn2cc(CCOC(=O)c3cccc(Cn4nnc5c4C(=O)c4ccccc4C5=O)c3)nn2)c1
HCC-2998 colon
  GI50: 0.0362 µM
  TGI: > 47.8 µM
DU-145 prostate
  GI50: < 0.01 µM
HOP-62 NSCLC
  GI50: 0.0381 µM
  TGI: 27 µM
SW-620 colon
  GI50: < 0.01 µM
  TGI: > 100 µM
NCI-H23 lung
  GI50: < 0.01 µM
  TGI: 18.3 µM
MDA-MB-231 breast
  GI50: < 0.01 µM
  TGI: 16.3 µM
NCI-H522 lung
  GI50: 0.0102 µM
HT29 colon
  GI50: 0.321 µM
CAKI-1 renal
  GI50: 0.0459 µM
  TGI: 20.1 µM
SR leukemia
  GI50: < 0.01 µM
  TGI: > 100 µM

## COc1c(CNC(=O)CCl)cc2[nH]c(C)cc2c1CNC(=O)CCl
HCC-2998 colon
  GI50: 13.2 µM
  TGI: 30.4 µM
DU-145 prostate
  GI50: 5.03 µM
  TGI: 19.7 µM
HOP-62 NSCLC
  GI50: 6.1 µM
  TGI: 20.2 µM
SW-620 colon
  GI50: 5.61 µM
  TGI: 20.7 µM
NCI-H23 lung
  GI50: 7.14 µM
  TGI: 31.3 µM
MDA-MB-231 breast
  GI50: 6.12 µM
  TGI: 41.3 µM
NCI-H522 lung
  GI50: 1.82 µM
  TGI: 4.16 µM
HT29 colon
  GI50: 5.97 µM
  TGI: 25.2 µM
CAKI-1 renal
  GI50: 6.73 µM
  TGI: 37 µM
SR leukemia
  GI50: 4.36 µM
  TGI: > 100 µM
